Measurements reported in ChEMBL document CHEMBL4196028, “Synthesis and biological evaluation of 20-epi-amino-20-deoxysalinomycin derivatives” (Eur J Med Chem, 2018).

Test: physchem
Conditions: n-octanol/water

Row | Structure (SMILES) | logP
1 | CC[C@@H](C(=O)[C@@H](C)[C@@H](O)[C@H](C)[C@@H]1O[C@@H]([C@@H](CC)C(=O)O)CC[C@@H]1C)[C@H]1O[C@]2(C=C[C@H](NC(=O)OCc3ccccc3)[C@]3(CC[C@@](C)([C@H]4CC[C@](O)(CC)[C@H](C)O4)O3)O2)[C@H](C)C[C@@H]1C | 1.77
2 | CC[C@@H](C(=O)[C@@H](C)[C@@H](O)[C@H](C)[C@@H]1O[C@@H]([C@@H](CC)C(=O)OCC[Si](C)(C)C)CC[C@@H]1C)[C@H]1O[C@]2(C=C[C@H](n3cc(COC(C(F)(F)F)(C(F)(F)F)C(F)(F)F)nn3)[C@]3(CC[C@@](C)([C@H]4CC[C@](O)(CC)[C@H](C)O4)O3)O2)[C@H](C)C[C@@H]1C | 1.95
3 | CC[C@@H](C(=O)[C@@H](C)[C@@H](O)[C@H](C)[C@@H]1O[C@@H]([C@@H](CC)C(=O)O)CC[C@@H]1C)[C@H]1O[C@]2(C=C[C@@H](O)[C@]3(CC[C@@](C)([C@H]4CC[C@](O)(CC)[C@H](C)O4)O3)O2)[C@H](C)C[C@@H]1C [SALINOMYCIN] | 2.21
